The test addresses S. pyogenes SKKanGAS, kanamycin survival, BacTiterGlo, 6 h. The test is described as follows: SKKanGAS survival reduction under kanamycin, dose response, streptokinase promoter inhibitor project, SKKanGAS strain, luminescence, dose confirmation (AID 1902).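 Further: lower survival reflects blocked streptokinase promoter driving kanamycin resistance gene.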

The source made the active and inactive calls.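 How the source made its calls: active means EC50 no more than a set limit of log units above the highest dose; inactive means the rest.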

A word on the EC50: it is the concentration needed to bring the measured effect to its halfway point. For `Cc1c(C(=O)Nc2ccc(Oc3ccccc3)cc2)sc2nc3n(c(=O)c12)CCC3`, the EC50 is 6.21 µM.
Then `CCn1c(SCC(=O)N2CC(C)OC(C)C2)nc2c([nH]c3ccccc32)c1=O` (stereo unspecified), with > 15 µM (inactive).
To `Cc1cc(N/N=C/c2ccccc2O)nc(-c2ccccc2O)n1` belongs 1.6 µM; to `OC1(C#Cc2c(-c3ccsc3)oc3ccc(N4CCOCC4)cc23)CCCCC1`, 3.59 µM; to `O=C(O)c1ccc(-c2nc(-c3ccc(Cl)c(Cl)c3)cs2)cc1`, 3.82 µM.
Then `CCOC(=O)[C@@H]1[C@H]2COc3ccccc3[C@H]2N2C(=O)N(c3ccc(C(F)(F)F)cc3)C(=O)[C@]12C`, with 6.08 µM.
As for `CCCOc1ccc(C(=O)NC(=S)NNC(=O)c2c(-c3ccccc3)noc2C)cc1`, the EC50 is 0.274 µM.
To `CC(C)C1O/C(=N/C(=O)Nc2ccc(Cl)c(Cl)c2)NC1=O` (stereo unspecified) belongs 2.53 µM; to `Cc1cc(O)c(C(C)C)cc1C1(c2cc(C(C)C)c(O)cc2C)OC(=O)c2ccccc21`, 1.8 µM; to `COc1ccc(/C=N/Nc2cc(C)nc(-n3nc(C)cc3C)n2)c(OC)c1`, 7.93 µM.
As to `CCN(CC)c1nc(Nc2ccc([N+](=O)[O-])cc2)nc(N(CC)CC)n1`, the concentration for a half-maximal effect (EC50) was 3.15 µM.
Then `Cc1cc(=O)oc2c3c(cc(OCC(=O)NC4CC4)c12)OC(C)(C)CC3`, with > 15 µM (inactive); and `O=C(Nc1nc(-c2ccccn2)cs1)Nc1ccc(F)cc1F`, with 1.24 µM; and `COc1ccc(N=C2NN=C(c3c(C)[nH]c4ccccc34)CS2)cc1`, with 7.32 µM.
Then `CN(C)c1nc(SCc2ccccc2Cl)nc2c1CCCC2`, with 6.27 µM; and `COc1ccc(NC(=S)Nc2nc(CC(=O)Nc3ccccc3OC)cs2)cc1`, with 8.89 µM.
For `C=CCn1c(O)c(N=NC(=S)Nc2ccccc2F)c2ccccc21`, the concentration giving a half-maximal response (EC50) is 0.572 µM.
Regarding `O=C(Oc1cccc2c(O)cccc12)c1ccccc1`, the EC50 was > 15 µM (inactive).
To `C/C(=N/Nc1cc(-c2ccccc2)nc(-c2ccccc2)n1)c1ccc(O)cc1` belongs 2.08 µM.
As to `Cc1cc(/C=C2\C(=N)N3N=C(S(C)(=O)=O)SC3=NC2=O)c(C)n1Cc1ccccc1`, the EC50 is 4.77 µM.
To `O=C(Nc1ccc(-c2csc(Nc3ccccc3)n2)cc1)c1cccc(C(F)(F)F)c1` belongs > 15 µM (inactive); to `CCOc1ccc(/C=C2/Sc3ccc(C(=O)N4CCN(C(=O)c5ccco5)CC4)cc3N(C)C2=O)cc1OC`, 4.19 µM; to `C/C(=N\NS(=O)(=O)c1ccc(C)cc1)c1ccc(C)o1`, > 15 µM (inactive).
For `O=C(Nc1ccc(Oc2ccc(Cl)cc2)c(Cl)c1)c1cc(I)cc(I)c1O`, the EC50 was less than 0.06 µM.
Consider `COc1cccc(/C=C/C(=O)OCC(=O)Nc2nnc(-c3ccccc3)o2)c1`, for which the EC50 is 4.21 µM.
To `Cc1[nH]c(N=Nc2ccccc2)nc1N=Nc1ccccc1` belongs 2.8 µM; to `OC(COCC(F)(F)C(F)(F)C(F)(F)C(F)F)Cn1c2ccc(Cl)cc2c2cc(Cl)ccc21` (stereo unspecified), 2.16 µM; to `COc1cccc(NP(=O)(Oc2ccc(Cl)cc2)Oc2ccc(Cl)cc2)c1`, 3.22 µM.
On to `CC(C)Nc1nc(Oc2cccc(Cl)c2Cl)cc(C(F)(F)F)n1`, for which the EC50 was 5.29 µM.
To `Cc1cccc(CS(=O)(=O)c2nnc([C@H](Cc3ccccc3)NC(=O)OC(C)(C)C)o2)c1` belongs 3.88 µM; to `O=C(Nc1nnc(C2=COCCO2)o1)c1cccc(F)c1`, 2.37 µM.
Then `O=C(N/N=C/c1cc(Br)cc(Br)c1O)c1ccncc1`, with 0.658 µM; and `CCCOc1ccc(C(=O)NNC(=S)NC(=O)c2ccccc2)cc1`, with 0.217 µM; and `Cn1nnc(-c2ccc(OCc3ccccc3F)cc2)n1`, with 9.46 µM.
Consider `Cc1ccc(C)c(-c2nnc(NC(=O)CCS(=O)(=O)c3ccccc3)o2)c1`, for which the EC50 was 8.64 µM.
To `O=C(CSc1nnc(CNC(=O)c2ccccc2)o1)NCc1ccccc1` belongs > 15 µM (inactive); to `COCc1cc(Sc2c(Cl)cccc2Cl)nc(-c2ccccc2)n1`, 10.5 µM.
Turning to `Cn1nc(-c2ccccc2)c(CSc2cccc(Cl)c2)c1Cl`, the EC50 was 1.08 µM.
To `O=C(N/N=C/c1cc([N+](=O)[O-])cc(Br)c1O)C12CC3CCC(CC(C3)C1)C2` belongs 5.07 µM; to `CC(C)=CCc1c(-c2ccc(O)cc2O)oc2cc3c(c(O)c2c1=O)C=CC(C)(C)O3`, 1.58 µM.
`COCCCn1c(N)c(C(=O)Nc2ccccc2)c2nc3ccccc3nc21`: the EC50 is 11.8 µM.
For `COC(=O)c1c(NC(=O)COc2ccc(Cl)cc2)sc2c1CC(C)(C)NC2(C)C`, the EC50 is 12.5 µM.
Then `Cc1ccccc1NC(=O)C(=O)NC(C)CCc1ccccc1` (stereo unspecified), with > 15 µM (inactive); and `CC(=O)Oc1c(-c2ccc(Br)o2)oc2ccccc2c1=O`, with 3.34 µM.
Then `O=C(N/N=C/c1ccc(-c2ccc(Cl)c(C(=O)O)c2)o1)c1cc2c(ccc3ccccc32)o1`, with 4.05 µM; and `CSc1ccc(S(=O)(=O)NCC(=O)OCC(=O)N2CCCC2=O)cc1[N+](=O)[O-]`, with 9.29 µM.
For `Cc1nn(CC(=O)Nc2c(F)c(F)cc(F)c2F)c(=O)c2cccn12`, the EC50 was > 15 µM (inactive).
For the compound `CCCCCCCCCc1nc2sc3c(c2c(=O)n1NC(=O)c1ccc([N+](=O)[O-])cc1)CC(C)(C)OC3`, the EC50 is 3.5 µM.
To `Cc1cc(C)c(C)c(OCCCOc2cccc3cccnc23)c1` belongs 13.5 µM.
In the case of `COc1ccc(-c2csc(Nc3ccc(S(=O)(=O)Nc4cc(C)on4)cc3)n2)cc1C`, the half-maximal effective concentration (EC50) was 6.44 µM.
Then `CC1Cc2ccccc2N1C(=S)NC(=O)c1ccc(Cl)cc1Cl` (stereo unspecified), with 4.26 µM; and `COc1ccc(-c2cc3nc4ccccc4n3c(N)c2C#N)cc1`, with 4.21 µM.
Regarding `CCN1CCN(C(CNS(=O)(=O)c2ccc(C)cc2)c2cccnc2)CC1` (stereo unspecified), the EC50 is > 15 µM (inactive).
Then `COc1cc(C(=O)NNC(=S)NC(=O)c2ccc(Cl)cc2)cc(OC)c1OC`, with 0.499 µM; and `CCCCNc1c(-c2ccc(SC(C)CC)c(OC)c2)nc2ccc(C)cn12` (stereo unspecified), with 3.46 µM.
To `CCCCCCCC(=O)NNC(=O)c1c(O)c2ccccc2n(CC)c1=O` belongs 1.3 µM; to `CCCCCCCCCCCCC/C=C/[C@@H](O)[C@@H](N)CO`, 2.56 µM; to `COc1cc2nc(=S)n3[nH]c(COc4ccccc4C)nc3c2cc1OC`, 2.28 µM.
Then `Cc1cc(N2CCC(C)CC2)nc(-n2nc(C)cc2C)n1`, with 7.73 µM; and `O=C(N/N=C/c1ccc([N+](=O)[O-])o1)c1ccc(NS(=O)(=O)c2cccs2)cc1`, with 3.55 µM.
`COc1ccc(-c2cc(-c3ccc(Cl)cc3)n[nH]2)c(O)c1`: the EC50 is 8.75 µM.
With `CC(C)C[C@H](NC(=O)c1nc[nH]c1C(=O)NCc1ccccc1)C(=O)OCc1ccccc1`, the EC50 was 5.01 µM.
Consider `CC(C)=CCc1c2c(c(O)c3c(=O)c4c(oc13)-c1cc(O)c(O)cc1OC4C=C(C)C)C=CC(C)(C)O2` (stereo unspecified), for which the EC50 is 1.88 µM.
For `C=CCN1C(=O)/C(=C/c2ccc(OC(C)=O)c(OCC)c2[N+](=O)[O-])SC1=S`, the EC50 was 1.62 µM.
`C[C@@H](C[C@@H](O)[C@H](O)C(C)(C)O)[C@@H]1CC[C@]2(C)C3=CC[C@H]4C(C)(C)C(=O)CC[C@]4(C)[C@H]3CC[C@@]12C`: the EC50 is 2.46 µM.
Turning to `N#C/C(=N\Nc1ccc(Cl)cc1)C(N)=S`, the EC50 is > 15 µM (inactive).

For the origin of these results see PubChem BioAssay AID1902 (Broad Institute, 2009).
